According to publication PMC6964649, “Light-controllable dithienylethene-modified cyclic peptides: photoswitching the in vivo toxicity in zebrafish embryos” (Beilstein Journal of Organic Chemistry, 2020):
Starred links: 1 amine or outer side, 2 acyl side, 3 side chain; linkers in the order of their positions; H or OH if unused. Positions of bridges follow the written chain, without caps; N, C: chain ends. Non-standard residues stand in square brackets, D forms with d. Residues, ends and D or L forms follow the SMILES beside them. *: point of attachment. X2 = Cc1sc(C(=O)[C@@H]2CCCN2[*:2])cc1C1=C(c2cc(C(=O)[*:1])sc2C)CCC1; Orn = NCCC[C@H](N)C(=O)O; NHiPr = CC(C)N*

Experiments:
[1] = test system: D. rerio embryos; assay: D. rerio embryotoxicity assay, direct application of ring-open photoform; type: in vivo, Danio rerio; conditions: direct application of 1 or ring-open photoform, zebrafish embryos at 3 dpf, final DMSO 0.2%, ambient light, value ± STD; for LD50 (open)^1h: 1 h incubation, 12–15 or 18–20 embryos; for LD50 (open)^3h: 3 h incubation; for LD50 (open)^24h: 24 h incubation
Procedure: (§1) To establish the assay for screening the photoswitchable peptides, we first studied the toxicity of our prototype 2 by varying the assay conditions. The parent peptide GS 1 was used as a control. […] We measured the doses causing the death of 50% embryos (LD50). We tested two different assay variations: in one version, the LD50(open) was determined after direct application of 1 or of the ring-open form of 2. In the other variant, the photoswitchable peptide was applied in the ring-closed photoform in the darkness, its LD50(closed) was recorded, and then in situ illumination (“photoactivation”) was applied to switch into the ring-open photoform and obtain the respective LD50(opened) values (see Figure 2 for the study design and the killing curves).
(§2) Figure 2 Two versions of the D. rerio embryotoxicity assay for DAE-modified peptides: timelines, peptide photostates, ages of larvae, and definitions of the measured characteristics. (A) Direct application of the non-photoswitchable parent GS 1 or of the ring-open photoform of our prototype 2, and the corresponding killing curves for 1 (C, top, black) and 2 (C, bottom, red). (B) “Photoactivation” assay: initial application of the ring-closed photoform, incubation in darkness, followed by in situ photoconversion into the ring-open(ed) photoform, with the corresponding killing curves for 1 (D, top) and 2 (D, bottom, green for ring-closed, red for ring-open isomers). The latter panel illustrates the “phototherapeutic safety window” (green arrow) as the difference in toxicity between the ring-closed and the ring-open isomers upon photoactivation.
(§3) Each time, 12–15 or 18–20 zebrafish embryos at 3 dpf were treated by applying the corresponding peptide dissolved in dimethyl sulfoxide (final dimethyl sulfoxide concentration was 0.2%). Double-concentrated peptide stock solutions (64–512 µg/mL) were prepared by weighing lyophilized peptides, dissolving in 10% dimethyl sulfoxide and constructing two-fold dilution series with ten–eleven dilution steps. In the photoconversion experiments, in order to prevent spontaneous photoswitching of the ring-closed peptides by vis light, zebrafish embryos and peptides were kept in the dark before the first readout, and the vials were sealed to avoid evaporation of the embryonic medium (E3) at prolonged incubation times. After the first screen, without exchanging any solution, the vials with embryos and ring-closed photoforms were exposed to intense illumination for 10 min (LUMATEC Superlite 410 light source, λ = 570 nm, irradiance approximately 20 mW/cm^2). Mortality was then determined under ambient light conditions at 1 h and 24 h after the illumination procedure.

[2] = test system: D. rerio embryos; assay: D. rerio embryotoxicity "photoactivation" assay (ring-closed photoform in darkness, then in situ photoconversion); type: in vivo, Danio rerio; conditions: for LD50 (opened)^1h / LD50 (opened)^24h: after 24 h with ring-closed form in dark, in situ illumination 10 min, λ = 570 nm, approx. 20 mW/cm^2; for LD50 (opened)^1h: mortality 1 h after illumination, embryos 4 dpf; for LD50 (opened)^1h / LD50 (opened)^24h / LD50 (closed)^24h: value ± STD; for LD50 (opened)^24h: mortality 24 h after illumination, embryos 5 dpf at readout; for LD50(closed)^24h/LD50(open)^24h ratio: phototherapeutic safety window, ring-closed 24 h LD50 (dark) divided by ring-open 24 h LD50 (direct application); for LD50 (closed)^24h: ring-closed photoform applied to embryos at 3 dpf, 24 h in the dark, sealed vials, E3 medium, 0.2% DMSO
Procedure: as §1, §2, §3

Structure (SMILES)	LD50 (open)^1h [1] [µg/mL]	LD50 (open)^3h [1] [µg/mL]	LD50 (open)^24h [1] [µg/mL]	LD50 (opened)^1h [2] [µg/mL]	LD50 (opened)^24h [2] [µg/mL]	LD50(closed)^24h/LD50(open)^24h ratio [2]	LD50 (closed)^24h [2] [µg/mL]
CC(C)C[C@@H]1NC(=O)[C@H](CCCN)NC(=O)[C@H](C(C)C)NC(=O)[C@@H]2CCCN2C(=O)[C@@H](Cc2ccccc2)NC(=O)[C@H](CC(C)C)NC(=O)[C@H](CCCN)NC(=O)[C@H](C(C)C)NC(=O)[C@@H]2CCCN2C(=O)[C@@H](Cc2ccccc2)NC1=O [Peptide 1, gramicidin S, reference compound] (cyclo(L[dF]PV[Orn]L[dF]PV[Orn]))	2.8 ± 2.7	2.0 ± 3.0	2.4 ± 0.2				
Cc1sc2cc1C1=C(CCC1)c1cc(sc1C)C(=O)[C@@H]1CCCN1C(=O)[C@H](C)NC(=O)[C@H](CCCN)NC(=O)[C@H](C(C)C)NC(=O)[C@@H]1CCCN1C(=O)[C@@H](Cc1ccccc1)NC(=O)[C@H](CC(C)C)NC(=O)[C@H](CCCN)NC(=O)[C@H](C(C)C)NC2=O [Peptide 3]	9.3 ± 7.8	4.8 ± 3.9	4.7 ± 0.1	9.5 ± 1.3	6.2 ± 0.6	6.6	31.1 ± 4.2
Cc1sc2cc1C1=C(CCC1)c1cc(sc1C)C(=O)[C@@H]1CCCN1C(=O)[C@H](C)NC(=O)[C@H](CCCN)NC(=O)[C@H](C(C)C)NC(=O)[C@@H]1CCCN1C(=O)[C@@H](Cc1ccccc1)NC(=O)[C@H](CC(C)C)NC(=O)[C@H](CCCN)NC(=O)[C@H](C)NC2=O [Peptide 4] (A[Orn]L[dF]PV[Orn]A; linker N-C via X2)	69.8 ± 10.5	40.6 ± 11.2	19.0 ± 1.3	51.0 ± 7.7	12.9 ± 1.9	10.4	
Cc1sc2cc1C1=C(CCC1)c1cc(sc1C)C(=O)[C@@H]1CCCN1C(=O)[C@H](CC(C)C)NC(=O)[C@H](CCCN)NC(=O)[C@H](C(C)C)NC(=O)[C@@H]1CCCN1C(=O)[C@@H](Cc1ccccc1)NC(=O)[C@H](CC(C)C)NC(=O)[C@H](CCCN)NC(=O)[C@H](CCCN)NC2=O [Peptide 5]	4.8 ± 2.2	2.8 ± 1.9	3.3 ± 0.7	8.1 ± 1.0	5.3 ± 0.5	2.5	8.1 ± 1.0
Cc1sc2cc1C1=C(CCC1)c1cc(sc1C)C(=O)[C@@H]1CCCN1C(=O)[C@H](C(C)C)NC(=O)[C@H](CCCN)NC(=O)[C@H](C(C)C)NC(=O)[C@@H]1CCCN1C(=O)[C@@H](Cc1ccccc1)NC(=O)[C@H](C(C)C)NC(=O)[C@H](CCCN)NC(=O)[C@H]([C@@H](C)O)NC2=O [Peptide 6] (T[Orn]V[dF]PV[Orn]V; linker N-C via X2)	30.8 ± 15.0	13.2 ± 13.3	8.6 ± 0.0	20.6 ± 1.7	6.3 ± 2.3	22.9	
Cc1sc2cc1C1=C(CCC1)c1cc(sc1C)C(=O)[C@@H]1CCCN1C(=O)[C@H](C(C)C)NC(=O)[C@H](CCCN)NC(=O)[C@H](C(C)C)NC(=O)[C@@H]1CCCN1C(=O)[C@@H](Cc1ccccc1)NC(=O)[C@H](C(C)C)NC(=O)[C@H](CCCN)NC(=O)[C@H](CC(=O)NC(C)C)NC2=O [Peptide 7] (D(NHiPr)[Orn]V[dF]PV[Orn]V; linker N-C via X2)	15.9 ± 4.3	8.7 ± 9.1	5.8 ± 0.4	18.2 ± 4.6	3.0 ± 2.5	45.9	
